Experimental data published in ChEMBL document CHEMBL1201862, “PubChem BioAssay data set” (2004).
Activity calls are given as the source filed them.

How the values were obtained:
[1] = decrease of insulin promoter-GFP reporter – imaging, high-content screening, mouse beta cells (AID 1628); type: functional; conditions: MIN6
[2] = MIN6 cell viability loss – mouse insulinoma, cytotoxicity control, dose response (AID 2122); type: functional;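 note: confirmatory high-throughput counterscreen run to flag cytotoxic compounds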
[3] = reduction of Shn3 3'UTR-driven luciferase in osteoblasts – cell-based, Clone20 osteoblasts, firefly luciferase, cherry-picked, dose response (AID 624132); type: functional;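 note: firefly luciferase luminescence from reporter carrying the Shn3 3'UTR in osteoblasts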
[4] = loss of viability in HepG2 cells – cell-based, CellTiter-Glo, cherry-picked, cytotoxicity control for Shn3 inhibitor project, dose response (AID 624134); type: functional
[5] = non-specific 3'UTR reporter inhibition in Clone20-Shn3RL – cell-based, Renilla luciferase, cherry-picked, counter-screen for Shn3 inhibitor project, dose response (AID 624133); type: functional
Leucine aminopeptidase = target: T1, Leucine aminopeptidase (Plasmodium falciparum 3D7, UniProt Q8IL11); assay: P. falciparum M17LAP inhibitors, primary screen, biochemical, fluorogenic H-Leu-NHMec substrate, 1536-well (AID 1619); type: functional
T1 sequence (Q8IL11 whole entry): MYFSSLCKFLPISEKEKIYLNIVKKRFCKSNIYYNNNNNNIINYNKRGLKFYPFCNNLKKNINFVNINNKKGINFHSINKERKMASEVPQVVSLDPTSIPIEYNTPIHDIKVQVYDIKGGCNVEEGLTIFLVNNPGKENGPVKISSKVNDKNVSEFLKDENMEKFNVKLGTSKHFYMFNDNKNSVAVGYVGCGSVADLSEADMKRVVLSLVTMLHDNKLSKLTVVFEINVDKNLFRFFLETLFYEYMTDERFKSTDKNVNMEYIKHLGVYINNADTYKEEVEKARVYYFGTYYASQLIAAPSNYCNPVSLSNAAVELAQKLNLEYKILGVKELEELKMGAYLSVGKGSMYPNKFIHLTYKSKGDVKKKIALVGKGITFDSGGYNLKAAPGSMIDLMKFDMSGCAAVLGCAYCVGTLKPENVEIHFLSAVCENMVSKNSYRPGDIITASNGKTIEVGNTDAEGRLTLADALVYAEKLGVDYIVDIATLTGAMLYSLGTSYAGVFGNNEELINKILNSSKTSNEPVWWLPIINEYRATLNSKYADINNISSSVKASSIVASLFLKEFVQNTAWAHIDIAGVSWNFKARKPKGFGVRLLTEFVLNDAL

[6] = target: T2, RNA-binding protein pos-1 (Caenorhabditis elegans, UniProt G5EF15); assay: disruptors of C. elegans POS-1 RNA interaction – biochemical, fluorescence polarization, dose response (AID 1964);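 note: purified POS-1 fused to maltose binding protein made in E. coli; potency of compounds blocking POS-1 binding to fluorescent RNA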
T2 sequence (G5EF15 whole entry): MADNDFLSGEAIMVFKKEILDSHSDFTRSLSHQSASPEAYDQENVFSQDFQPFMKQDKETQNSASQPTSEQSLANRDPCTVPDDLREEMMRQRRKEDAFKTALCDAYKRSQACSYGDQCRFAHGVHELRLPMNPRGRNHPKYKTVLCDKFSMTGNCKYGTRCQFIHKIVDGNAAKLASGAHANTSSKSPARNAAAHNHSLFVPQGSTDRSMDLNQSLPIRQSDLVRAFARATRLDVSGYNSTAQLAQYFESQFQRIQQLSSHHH

[7] = target: T3, Zinc finger protein mex-5 (Caenorhabditis elegans, UniProt Q9XUB2); assay: potency of MEX-5 RNA-binding blockers – biochemical, C. elegans, fluorescence polarization, dose response (AID 1960)
T3 sequence (Q9XUB2 whole entry): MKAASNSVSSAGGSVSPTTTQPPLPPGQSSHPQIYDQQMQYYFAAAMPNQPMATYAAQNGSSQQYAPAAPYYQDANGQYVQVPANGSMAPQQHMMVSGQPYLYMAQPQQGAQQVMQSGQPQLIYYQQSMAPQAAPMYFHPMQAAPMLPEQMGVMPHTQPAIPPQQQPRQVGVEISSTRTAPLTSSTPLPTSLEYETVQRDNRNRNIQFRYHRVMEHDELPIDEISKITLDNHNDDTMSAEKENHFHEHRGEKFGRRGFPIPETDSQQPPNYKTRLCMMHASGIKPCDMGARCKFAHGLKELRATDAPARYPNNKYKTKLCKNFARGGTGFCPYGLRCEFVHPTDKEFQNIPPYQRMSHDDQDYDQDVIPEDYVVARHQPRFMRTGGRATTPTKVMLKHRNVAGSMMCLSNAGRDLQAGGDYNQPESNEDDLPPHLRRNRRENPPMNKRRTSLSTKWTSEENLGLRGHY

[8] = target: DNA dC->dU-editing enzyme APOBEC-3A (Homo sapiens, UniProt P31941); assay: Dose Response confirmation of small molecule APOBEC3A DNA Deaminase Inhibitors via a fluorescence-based single-stranded DNA deaminase assay. [Related pubchem assays (depositor defined):AID493011, AID493024]; type: functional
Sequence of DNA dC->dU-editing enzyme APOBEC-3A (P31941 whole entry): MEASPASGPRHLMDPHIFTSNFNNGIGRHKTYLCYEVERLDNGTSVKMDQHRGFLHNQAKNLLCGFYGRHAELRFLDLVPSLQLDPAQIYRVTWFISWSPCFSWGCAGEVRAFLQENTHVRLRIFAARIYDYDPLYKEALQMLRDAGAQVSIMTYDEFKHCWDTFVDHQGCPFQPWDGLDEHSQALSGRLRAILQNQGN

[9] = target: DNA dC->dU-editing enzyme APOBEC-3G (Homo sapiens, UniProt Q9HC16); type: functional;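 note: Dose-response counterscreen measuring inhibition of APOBEC3G DNA deaminase activity, run while confirming APOBEC3A inhibitors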
Sequence of DNA dC->dU-editing enzyme APOBEC-3G (Q9HC16 whole entry): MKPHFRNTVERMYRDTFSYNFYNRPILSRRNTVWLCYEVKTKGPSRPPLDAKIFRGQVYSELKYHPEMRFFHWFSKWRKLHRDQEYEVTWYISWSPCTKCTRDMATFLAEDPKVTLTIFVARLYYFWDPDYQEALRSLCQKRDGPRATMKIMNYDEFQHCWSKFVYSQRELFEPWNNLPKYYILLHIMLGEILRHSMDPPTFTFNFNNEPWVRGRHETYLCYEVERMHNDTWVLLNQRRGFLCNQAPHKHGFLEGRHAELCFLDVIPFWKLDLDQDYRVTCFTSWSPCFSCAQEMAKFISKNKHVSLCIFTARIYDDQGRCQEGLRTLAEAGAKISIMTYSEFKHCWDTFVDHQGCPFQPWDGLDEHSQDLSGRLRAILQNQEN

HEK293 [10] = assay: inhibition of NOD1-driven NF-kB reporter – cell-based, luminescence, uHTS, primary screen (AID 1578); type: functional; conditions: Homo sapiens
HEK293 [11] = assay: cells; type: functional, cell-based; conditions: Homo sapiens
HEK293 [12] = assay: cells; type: functional, cell-based; conditions: Homo sapiens; remark: listed apart in the source
[13] = target: Nucleotide-binding oligomerization domain-containing protein 2 (Homo sapiens, UniProt Q9HC29); assay: inhibition of NOD2-driven NF-kB reporter – cell-based, luminescence, uHTS, HEK293 (AID 1566); type: functional
Sequence of Nucleotide-binding oligomerization domain-containing protein 2 (Q9HC29 whole entry, the tested form may be a part): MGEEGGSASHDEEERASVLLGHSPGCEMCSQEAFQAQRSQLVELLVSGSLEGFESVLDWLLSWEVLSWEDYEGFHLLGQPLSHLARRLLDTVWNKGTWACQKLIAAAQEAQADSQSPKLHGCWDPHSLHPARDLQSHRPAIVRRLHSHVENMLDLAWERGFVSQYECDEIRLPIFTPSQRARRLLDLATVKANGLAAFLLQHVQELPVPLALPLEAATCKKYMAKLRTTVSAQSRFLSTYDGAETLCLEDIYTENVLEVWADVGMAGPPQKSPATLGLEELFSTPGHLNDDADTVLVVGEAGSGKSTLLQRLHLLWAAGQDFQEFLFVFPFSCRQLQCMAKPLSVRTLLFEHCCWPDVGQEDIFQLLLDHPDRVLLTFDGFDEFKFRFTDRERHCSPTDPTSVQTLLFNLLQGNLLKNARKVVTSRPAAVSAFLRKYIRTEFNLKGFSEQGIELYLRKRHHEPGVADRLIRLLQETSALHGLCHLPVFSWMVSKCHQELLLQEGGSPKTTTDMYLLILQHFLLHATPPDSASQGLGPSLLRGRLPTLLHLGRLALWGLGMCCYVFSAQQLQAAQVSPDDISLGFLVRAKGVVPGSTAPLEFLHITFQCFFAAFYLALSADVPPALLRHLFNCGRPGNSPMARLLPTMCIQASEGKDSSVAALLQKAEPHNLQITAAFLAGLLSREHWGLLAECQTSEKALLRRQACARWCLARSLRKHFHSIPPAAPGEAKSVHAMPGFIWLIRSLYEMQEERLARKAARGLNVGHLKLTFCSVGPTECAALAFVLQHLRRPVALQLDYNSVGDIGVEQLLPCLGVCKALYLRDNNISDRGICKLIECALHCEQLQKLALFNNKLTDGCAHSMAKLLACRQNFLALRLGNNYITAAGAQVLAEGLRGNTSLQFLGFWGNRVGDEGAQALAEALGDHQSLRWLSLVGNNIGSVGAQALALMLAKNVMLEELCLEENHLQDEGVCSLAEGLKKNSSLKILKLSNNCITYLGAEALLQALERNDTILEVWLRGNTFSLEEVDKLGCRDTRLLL

HEK293 [14] = assay: NOD2 signaling inhibitors in MDP-stimulated cells, cell-based, uHTS, luminescence (AID 2001); type: functional; conditions: Homo sapiens
HEK293 [15] = assay: cells; type: functional, cell-based; conditions: Homo sapiens; remark: listed apart in the source
Tumor necrosis factor = Tumor necrosis factor (Homo sapiens, UniProt P01375); assay: analog potency on TNFa NF-kB signaling – cell-based, revised, SAR follow-up (AID 2337); type: functional
Sequence of Tumor necrosis factor (P01375 whole entry, the tested form may be a part): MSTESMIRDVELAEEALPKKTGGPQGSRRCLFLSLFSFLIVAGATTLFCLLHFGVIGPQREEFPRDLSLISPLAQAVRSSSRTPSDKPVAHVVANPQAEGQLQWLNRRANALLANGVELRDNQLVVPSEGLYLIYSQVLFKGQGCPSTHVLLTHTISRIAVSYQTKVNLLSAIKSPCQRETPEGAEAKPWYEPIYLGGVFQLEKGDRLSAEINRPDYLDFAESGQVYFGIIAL

[16] = target: T4, Nucleotide-binding oligomerization domain-containing protein 1 (Homo sapiens, UniProt Q9Y239); assay: blockers of NOD1 pathway activity – revised, SAR follow-up (AID 2333); type: functional
T4 sequence (Q9Y239 whole entry): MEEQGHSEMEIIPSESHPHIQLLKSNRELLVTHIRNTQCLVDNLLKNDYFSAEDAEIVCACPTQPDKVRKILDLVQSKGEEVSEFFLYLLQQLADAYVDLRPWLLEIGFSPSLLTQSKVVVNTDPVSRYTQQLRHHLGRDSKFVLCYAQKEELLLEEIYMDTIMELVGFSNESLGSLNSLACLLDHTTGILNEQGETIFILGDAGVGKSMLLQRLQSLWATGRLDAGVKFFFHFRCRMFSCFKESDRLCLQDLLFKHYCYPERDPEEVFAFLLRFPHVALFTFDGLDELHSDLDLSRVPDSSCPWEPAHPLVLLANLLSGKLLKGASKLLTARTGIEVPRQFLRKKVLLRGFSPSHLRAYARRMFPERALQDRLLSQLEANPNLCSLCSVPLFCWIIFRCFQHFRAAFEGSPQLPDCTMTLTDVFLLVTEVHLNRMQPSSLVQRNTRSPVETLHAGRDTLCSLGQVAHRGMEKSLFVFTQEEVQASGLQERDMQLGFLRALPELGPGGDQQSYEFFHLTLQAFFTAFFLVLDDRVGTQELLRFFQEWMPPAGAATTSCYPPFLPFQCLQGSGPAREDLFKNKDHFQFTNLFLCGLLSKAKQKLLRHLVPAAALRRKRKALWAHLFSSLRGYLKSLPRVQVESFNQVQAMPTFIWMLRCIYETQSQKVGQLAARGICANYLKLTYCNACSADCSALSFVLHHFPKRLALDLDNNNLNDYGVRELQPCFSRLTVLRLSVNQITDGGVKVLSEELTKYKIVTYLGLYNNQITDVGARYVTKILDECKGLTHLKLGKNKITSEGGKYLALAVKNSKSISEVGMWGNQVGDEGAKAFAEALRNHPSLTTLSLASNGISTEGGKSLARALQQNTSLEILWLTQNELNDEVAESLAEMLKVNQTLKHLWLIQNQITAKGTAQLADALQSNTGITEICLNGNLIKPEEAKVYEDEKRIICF

HEK293 [17] = assay: cells; conditions: Homo sapiens
[18] = Trypanosoma cruzi growth suppression in host cells – NIH3T3 host cells, beta-gal luminescence, confirmation (AID 2044); type: functional, cell-based;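 note: intracellular parasites grown in NIH/3T3 mouse fibroblasts as host cells; luminescent beta-galactosidase reporter signal from transgenic T. cruzi replicating inside host cells; inhibitors lower the luminescence signal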
[19] = NIH3T3 cell viability loss – ATP luminescence, mouse fibroblasts, counter-screen, dose response (AID 2010); type: functional, cell-based;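 note: cells exposed to compound for about 90 hours before reading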

O=C(CN(C(=O)c1ccc(Cl)cc1)C1CCCCC1)Nc1ccc(Cl)c([N+](=O)[O-])c1
IC50 [1]: 3.45 µM (active) | IC50 [2]: 1.85 µM (active) | AC50 [3]: 8.11 µM (active) | AC50 [4]: 52.6 µM (active) | AC50 [5]: 20.6 µM (active)

O=C(O)c1cccc(-n2cccc2/C=C2/NC(=O)N(Cc3ccccc3F)C2=O)c1
IC50 (Leucine aminopeptidase): 53.2 µM (active) | EC50 [6]: > 300 µM (not active) | EC50 [7]: > 300 µM (not active) | IC50 [8]: 14.9 µM (active) | IC50 [9]: 42.9 µM (active)

Cc1ccccc1C(=O)N1CCN(c2ccc(NC(=O)c3ccc4c(c3)OCCO4)cc2)CC1
EC50 (HEK293 [10]): 4.61 µM (active) | IC50 (HEK293 [11]): 4.55 µM (active) | IC50 (HEK293 [12]): 9.82 µM (active) | EC50 [13]: 10.2 µM (active) | IC50 (HEK293 [14]): 3.6 µM (active) | IC50 (HEK293 [15]): > 20 µM (inactive) | IC50 (Tumor necrosis factor): 4.73 µM (active) | IC50 [16]: 3.69 µM (active) | AC50 [3]: 2.17 µM (active) | AC50 [4]: 4.24 µM (active) | IC50 (HEK293 [17]): > 20 µM (inactive)

Cc1ccc(OCC(=O)Nc2ccc(S(=O)(=O)N(C)C3CCN(C)CC3)cc2)c(C)c1
EC50 [18]: 0.32 µM (active) | EC50 [19]: > 60 µM (not active) | IC50 [8]: 3.31 µM (active) | IC50 [9]: 6.95 µM (active)
